Assay results published in US20070049593A1 (priority 2004, published 2007).
Counter-ions that a name gives are not always drawn.

These compounds were tested against T1, HCV polymerase (Hepatitis C virus genotype 1b, UniProt P26663) (assay: biochemical). Details: not given.
T1 construct: a region encoding NS5B (J Virol 1991 March, 65(3), 1105-13, 544 amino acids after deletion of 47 amino acids on the C-terminal); 6xHis (C); made in house; host or cells: Escherichia coli
Set-up: species or system HCV BK strain
Procedure, shortened: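 His-tagged NS5B (BK strain, 47-aa C-terminal deletion, E. coli-expressed) at 0.5 μg/ml copied 5 μg/ml run-off RNA bearing the HCV 3′ UTR with 2 μM UTP plus [3H]UTP, 50 μM ATP/GTP, in pH 7.5 Tris with 5 mM MgCl2, 25 °C, 90 min. TCA-precipitated RNA was counted and IC50 calculated.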

T1 sequence (P26663 2420-2963): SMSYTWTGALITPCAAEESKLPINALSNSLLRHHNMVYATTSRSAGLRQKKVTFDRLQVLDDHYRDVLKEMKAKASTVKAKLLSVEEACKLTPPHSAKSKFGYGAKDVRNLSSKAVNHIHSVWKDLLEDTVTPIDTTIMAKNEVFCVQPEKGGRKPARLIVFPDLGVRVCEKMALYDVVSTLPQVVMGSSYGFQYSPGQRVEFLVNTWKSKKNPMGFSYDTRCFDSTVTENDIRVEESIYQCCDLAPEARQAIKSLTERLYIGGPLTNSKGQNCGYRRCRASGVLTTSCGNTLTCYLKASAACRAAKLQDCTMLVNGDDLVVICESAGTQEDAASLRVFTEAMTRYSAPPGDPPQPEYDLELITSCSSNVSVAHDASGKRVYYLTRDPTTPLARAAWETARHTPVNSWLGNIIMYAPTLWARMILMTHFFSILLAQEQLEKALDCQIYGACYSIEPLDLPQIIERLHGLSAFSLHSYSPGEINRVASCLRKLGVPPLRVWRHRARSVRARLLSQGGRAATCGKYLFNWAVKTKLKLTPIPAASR

SMILES | IC50 [nM]
CN(C)CCN1CCn2c(c(C3CCCCC3)c3ccc(C(=O)O)cc32)-c2ccc(OCc3ccccn3)cc21 [Example 1-543, 13-cyclohexyl-5-(2-dimethylaminoethyl)-3-(pyridin-2-ylmethoxy)-6,7-dihydro-5H-benzo[5,6][1,4]diazepino[7,1-a]indole-10-carboxylic acid trihydrochloride] | < 100
CCOc1ccc2c(c1)N(CCN1CCC[C@@H](CCOC)C1)CCn1c-2c(C2CCCCC2)c2ccc(C(=O)O)cc21 [Example 1-427, 13-cyclohexyl-3-ethoxy-5-{2-[(S)-3-(2-methoxyethyl)piperidin-1-yl]ethyl}-6,7-dihydro-5H-benzo[5,6][1,4]diazepino[7,1-a]indole-10-carboxylic acid dihydrochloride] | < 100
CCN1CCCN(C(=O)CN2CCn3c(c(C4CCCCC4)c4ccc(C(=O)O)cc43)-c3ccccc32)CC1 [Example 1-239, 13-cyclohexyl-5-[2-(4-ethyl-1,4-diazepan-1-yl)-2-oxoethyl]-6,7-dihydro-5H-benzo[5,6][1,4]diazepino[7,1-a]indole-10-carboxylic acid dihydrochloride] | < 100
COc1ccc2c(c1)OCCn1c-2c(C2CCCCC2)c2ccc(C(=O)N[C@@H](Cc3ccc(NC(=O)N(C)C)cc3)C(=O)O)cc21 [Example 2-425, (S)-2-[(12-cyclohexyl-3-methoxy-6,7-dihydro-5-oxa-7a-azadibenzo[a,e]azulene-9-carbonyl)amino]-3-[4-(3,3-dimethylureido)phenyl]propionic acid] | < 100
CC(C)COc1ccc2c(c1)N(CCC1CCCN(C(C)C)C1)CCn1c-2c(C2CCCCC2)c2ccc(C(=O)O)cc21 (centres unmarked) [Example 1-385, 13-cyclohexyl-3-isobutoxy-5-[2-(1-isopropylpiperidin-3-yl)ethyl]-6,7-dihydro-5H-benzo[5,6][1,4]diazepino[7,1-a]indole-10-carboxylic acid dihydrochloride] | < 100
COC1CCN(C(=O)CN2CCn3c(c(C4CCCCC4)c4ccc(C(=O)O)cc43)-c3ccccc32)CC1 [Example 1-36, 13-cyclohexyl-5-[2-(4-methoxypiperidin-1-yl)-2-oxoethyl]-6,7-dihydro-5H-benzo[5,6][1,4]diazepino[7,1-a]indole-10-carboxylic acid monohydrochloride] | < 100
COc1ccc2c(c1)N(CC(=O)N(C)C)CCn1c-2c(C2CCCCC2)c2ccc(C(=O)O)cc21 [Example 1-28, 13-cyclohexyl-5-dimethylcarbamoylmethyl-3-methoxy-6,7-dihydro-5H-benzo[5,6][1,4]diazepino[7,1-a]indole-10-carboxylic acid] | < 100
Cc1ccc2c(c1)N(CCN1CCCCC1)CCn1c-2c(C2CCCCC2)c2ccc(S(N)(=O)=O)cc21 [Example 1-507, 13-cyclohexyl-3-methyl-5-[2-(piperidin-1-yl)ethyl]-6,7-dihydro-5H-benzo[5,6][1,4]diazepino[7,1-a]indole-10-sulfonamide dihydrochloride] | 100 to 1000
O=C(O)c1ccc2c(C3CCCCC3)c3n(c2c1)CCN(CC(=O)N1CCC2CCCCC2C1)c1ccccc1-3 (centres unmarked) [Example 1-141, 13-cyclohexyl-5-[2-(octahydroisoquinolin-2-yl)-2-oxoethyl]-6,7-dihydro-5H-benzo[5,6][1,4]diazepino[7,1-a]indole-10-carboxylic acid monohydrochloride] | < 100
CS(=O)(=O)c1ccc(N2CCOCC2)c(COc2ccc3c(c2)NCCn2c-3c(C3CCCCC3)c3ccc(C(=O)O)cc32)c1 [Example 1-101, 13-cyclohexyl-3-[5-methanesulfonyl-2-(morpholin-4-yl)benzyloxy]-6,7-dihydro-5H-benzo[5,6][1,4]diazepino[7,1-a]indole-10-carboxylic acid dihydrochloride] | < 100
CN(C)CCOc1cccc2c1OCCn1c-2c(C2CCCCC2)c2ccc(C(=O)O)cc21 [Example 2-463, 12-cyclohexyl-4-(2-dimethylaminoethoxy)-6,7-dihydro-5-oxa-7a-azadibenzo[a,e]azulene-9-carboxylic acid monohydrochloride] | < 100
O=C(O)c1ccc2c(C3CCCCC3)c3n(c2c1)CCN(CCN1CCC2CCCCC2C1)c1ccccc1-3 (centres unmarked) [Example 1-146, 13-cyclohexyl-5-[2-(octahydroisoquinolin-2-yl)ethyl]-6,7-dihydro-5H-benzo[5,6][1,4]diazepino[7,1-a]indole-10-carboxylic acid dihydrochloride] | < 100
CC1CCCN(CCN2CCn3c(c(C4CCCCC4)c4ccc(C(=O)O)cc43)-c3ccc(C(C)C)cc32)C1 (centres unmarked) [Example 1-340, 13-cyclohexyl-3-isopropyl-5-[2-(3-methylpiperidin-1-yl)ethyl]-6,7-dihydro-5H-benzo[5,6][1,4]diazepino[7,1-a]indole-10-carboxylic acid dihydrochloride] | < 100
CC(=O)NC1CCN(C(=O)C(C)(C)NC(=O)c2ccc3c(C4CCCCC4)c4n(c3c2)CCOc2ccccc2-4)CC1 [Example 2-334, N-[2-(4-acetylaminopiperidin-1-yl)-1,1-dimethyl-2-oxoethyl]-12-cyclohexyl-6,7-dihydro-5-oxa-7a-azadibenzo[a,e]azulene-9-carboxamide] | < 100
COC(=O)Cn1c(C(C)(C)NC(=O)c2ccc3c(C4CCCCC4)c4n(c3c2)CCOc2ccccc2-4)nc2ccccc21 [Example 2-284, methyl (2-{1-[(12-cyclohexyl-6,7-dihydro-5-oxa-7a-azadibenzo[a,e]azulene-9-carbonyl)amino]-1-methylethyl}benzimidazol-1-yl)acetate] | < 100
CCN1CCN(C(=O)CN(CC)c2cccc3c2OCCn2c-3c(C3CCCCC3)c3ccc(C(=O)O)cc32)CC1 [Example 2-301, 12-cyclohexyl-4-{N-ethyl-N-[2-(4-ethylpiperazin-1-yl)-2-oxoethyl]amino}-6,7-dihydro-5-oxa-7a-azadibenzo[a,e]azulene-9-carboxylic acid dihydrochloride] | < 100
COc1ccc2c(c1)CN(C(=O)OC(C)(C)C)CCn1c-2c(C2CCCCC2)c2ccc(C(=O)O)cc21 [Example 11-4, 6-tert-butoxycarbonyl-14-cyclohexyl-3-methoxy-5,6,7,8-tetrahydrobenzo[6,7][1,4]diazocino[8,1-a]indole-11-carboxylic acid] | < 100
CN(C)Cc1cccc(-c2cccc3c2OCCn2c-3c(C3CCCCC3)c3ccc(C(=O)O)cc32)c1 [Example 2-328, 12-cyclohexyl-4-(3-dimethylaminomethylphenyl)-6,7-dihydro-5-oxa-7a-azadibenzo[a,e]azulene-9-carboxylic acid monohydrochloride] | < 100
Cc1ccc2c(c1)N(CCC1CCCCN1C)CCn1c-2c(C2CCCCC2)c2ccc(C(=O)O)cc21 (centres unmarked) [Example 1-287, 13-cyclohexyl-3-methyl-5-[2-(1-methylpiperidin-2-yl)ethyl]-6,7-dihydro-5H-benzo[5,6][1,4]diazepino[7,1-a]indole-10-carboxylic acid dihydrochloride] | < 100

Same assay, conditions: 25° C., 90 min; [5,6-3H]UTP incorporation into RNA; read-out: HCV polymerase inhibitory activity IC50

SMILES | IC50 [nM]
CCOc1ccc2c(c1)N(CCN1CCCCCCC1)CCn1c-2c(C2CCCCC2)c2ccc(C(=O)O)cc21 [Example 1-498, 5-[2-(azocan-1-yl)ethyl]-13-cyclohexyl-3-ethoxy-6,7-dihydro-5H-benzo[5,6][1,4]diazepino[7,1-a]indole-10-carboxylic acid monohydrochloride] | < 100
